Results on 25 molecules are retold here after PMC12390684 (Viruses, 2025).

Numbered stars: 1 amine (or outer) side, 2 acyl side, 3 side chain; on linkers, the order of the positions; unused ones are H or OH. Bridge positions count the residues as written; N and C are the ends. Square brackets hold non-standard residues; d marks the D form. Peptide text beside a SMILES is read from it. I, II: the chains in the order shown. Actinocin(9to1) = Cc1c2oc3c(C)ccc(C(=O)[*:1])c3nc-2c(C(=O)[*:2])c(N)c1=O; NMeV = CN[C@H](C(=O)O)C(C)C; Sar = CNCC(=O)O

The target in one assay is IN-GCN2 interaction (6xHis-IN / GST-GCN2) (UniProt P04585+Q9P2K8). The assay can be described thus: biochemical. It counts as binding, HIV-1 IN; human GCN2. The note with it: screen, single dose 100 µM, single replicate; residual AlphaLISA signal normalized to DMSO control. (Alpha assays give light when donor and acceptor beads are brought close together.)
Chain of IN-GCN2 interaction (6xHis-IN / GST-GCN2) (Q9P2K8 192-1024, other chains not shown): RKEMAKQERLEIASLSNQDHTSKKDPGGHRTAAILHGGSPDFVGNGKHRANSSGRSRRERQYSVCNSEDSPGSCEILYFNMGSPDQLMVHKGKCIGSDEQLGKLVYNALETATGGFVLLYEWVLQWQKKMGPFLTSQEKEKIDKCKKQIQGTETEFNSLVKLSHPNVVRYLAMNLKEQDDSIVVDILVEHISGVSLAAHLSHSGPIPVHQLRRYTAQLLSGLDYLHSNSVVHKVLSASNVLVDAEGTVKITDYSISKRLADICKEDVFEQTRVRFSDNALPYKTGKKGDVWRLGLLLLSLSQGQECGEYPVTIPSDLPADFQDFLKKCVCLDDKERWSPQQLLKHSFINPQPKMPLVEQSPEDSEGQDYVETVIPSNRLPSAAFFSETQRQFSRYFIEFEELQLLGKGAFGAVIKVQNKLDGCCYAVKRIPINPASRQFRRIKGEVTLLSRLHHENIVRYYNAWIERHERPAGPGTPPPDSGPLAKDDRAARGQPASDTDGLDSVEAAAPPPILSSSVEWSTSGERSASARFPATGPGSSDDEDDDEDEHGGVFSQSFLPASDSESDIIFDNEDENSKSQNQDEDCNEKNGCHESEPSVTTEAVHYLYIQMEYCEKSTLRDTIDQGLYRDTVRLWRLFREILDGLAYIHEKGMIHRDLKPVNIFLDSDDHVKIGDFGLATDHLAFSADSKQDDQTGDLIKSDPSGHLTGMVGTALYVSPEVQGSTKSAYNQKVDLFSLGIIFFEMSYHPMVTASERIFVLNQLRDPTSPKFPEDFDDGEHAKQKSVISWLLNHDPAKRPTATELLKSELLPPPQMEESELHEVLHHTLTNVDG
As to `COc1cc2c(c(OC)c1OC)-c1ccc(OC)c(=O)cc1[C@@H](NC(C)=O)CC2` [NSC757], the “IN-GCN2 interaction (%)” value is 116.47%.
`CC1(C)[C@H](C(=O)O)CC[C@]1(C)C(=O)O` [NSC824]: the “IN-GCN2 interaction (%)” value is recorded as 90.14%.
As for `OC[C@H]1O[C@@](CO)(O[C@H]2O[C@H](CO)[C@@H](O)[C@H](O)[C@H]2O)[C@@H](O[C@H]2O[C@H](CO)[C@@H](O)[C@H](O)[C@H]2O)[C@@H]1O` [NSC2080], the “IN-GCN2 interaction (%)” value turned out to be 102.20%.
As for `COc1cccc(C=O)c1O` [NSC2150], the “IN-GCN2 interaction (%)” value came to 88.39%.
Same read-out and setting: the result for `O=C(O)CC(CC(=O)O)C(=O)O` [NSC2347] reads 84.06%; that for `CC1(C)C(CC(=O)O)CC1C(=O)O` (stereo not shown) [NSC2802], 86.94%; that for `CCCCCC[C@@H](O)C/C=C\CCCCCCCC(=O)[O-].[Na+]` [NSC2835], 143.81%.
Still for that read-out and setting: under `CC(C)c1ccc2c(c1)CC[C@H]1[C@](C)(C(=O)O)CCC[C@]21C` [NSC2952] stands 107.26%.
As for `Cc1c2oc3c(C)ccc(C(=O)N[C@@H]4C(=O)N[C@H](C(C)C)C(=O)N5CCC[C@H]5C(=O)N(C)CC(=O)N(C)[C@@H](C(C)C)C(=O)O[C@@H]4C)c3nc-2c(C(=O)N[C@@H]2C(=O)N[C@H](C(C)C)C(=O)N3CCC[C@H]3C(=O)N(C)CC(=O)N(C)[C@@H](C(C)C)C(=O)O[C@@H]2C)c(N)c1=O` [NSC3053] (I: T[dV]P[Sar][NMeV] / II: T[dV]P[Sar][NMeV]; ester I:1-I:C, II:1-II:C; linker I:N-II:N via Actinocin(9to1)), the “IN-GCN2 interaction (%)” value turned out to be 121.53%.
With `COC1=CC(=O)C(C)=CC1=O` [NSC3071], the “IN-GCN2 interaction (%)” value is given as 99.07%.
As to `Nc1nc2c(c(=O)[nH]1)N(C=O)C(CNc1ccc(C(=O)N[C@@H](CCC(=O)O)C(=O)O)cc1)CN2` (stereo partly shown) [NSC3590], the “IN-GCN2 interaction (%)” value is 94.67%.
As for `CC(=O)CCC(=O)O` [NSC3716], the “IN-GCN2 interaction (%)” value was found to be 123.74%.
`NC(Cc1cc(I)c(O)c(I)c1)C(=O)O` (stereo not shown) [NSC4143]: the “IN-GCN2 interaction (%)” value worked out at 75.41%.
Regarding `COc1cc([C@H]2c3cc(O)c(OC)cc3C[C@H]3C(=O)OC[C@H]23)ccc1O` [NSC4586], the “IN-GCN2 interaction (%)” value is reported as 86.55%.
On to `CC(C)=CCc1c2c(c3occ(-c4ccc(O)c(O)c4)c(=O)c3c1O)C=CC(C)(C)O2` [NSC5113], for which the “IN-GCN2 interaction (%)” value is on record as 36.50%.
Same read-out and setting: the result for `CO[C@H]1[C@@H](O)[C@@H](C)O[C@H](O[C@H]2[C@H](Oc3cccc4c(O)c5c(=O)oc6ccc(C)c7c(=O)oc(c34)c5c67)O[C@H](C)[C@H](O)[C@@H]2O)[C@@H]1O` [NSC5159] reads 121.88%.
As for `COc1ccc2c(c1OC)C(=O)O[C@@H]2[C@H]1c2c(cc3c(c2OC)OCO3)CCN1C` [NSC5366], the “IN-GCN2 interaction (%)” value worked out at 132.74%.
`CCCCCCCCCCCCCCCCCCO` [NSC5379]: the “IN-GCN2 interaction (%)” value is listed as 92.43%.
As for `O=c1[nH]cnc2ccccc12` [NSC5863], the “IN-GCN2 interaction (%)” value was 93.27%.
Regarding `COC(=O)/C(=C1/OC(=O)C(c2ccccc2)=C1O)c1ccccc1` [NSC5897], the “IN-GCN2 interaction (%)” value amounted to 95.33%.
Turning to `C=C[C@]1(C)C=C2CC[C@@H]3[C@](C)(CCC[C@@]3(C)C(=O)O)[C@H]2CC1` [NSC6435], the “IN-GCN2 interaction (%)” value was found to be 127.66%.
Regarding `CC1=CC(=O)[C@@H]2C[C@H]1C2(C)C` [NSC6832], the “IN-GCN2 interaction (%)” value is listed as 90.37%.
Still for that read-out and setting: the result for `C[C@@H]1O[C@@H](O[C@@H]2C=C3CC[C@@H]4[C@H](CC[C@]5(C)[C@@H](c6ccc(=O)oc6)CC[C@]45O)[C@@]3(C)CC2)[C@H](O)[C@H](O)[C@H]1O` [NSC7521] reads 97.97%; that for `COc1ccc(C(=O)O[C@H]2CC[C@@]3(C)[C@@H]4CC[C@H]5[C@]6(O)C[C@H](O)[C@@]7(O)[C@@H](CN8C[C@@H](C)CC[C@H]8[C@@]7(C)O)[C@]6(O)C[C@@]53O[C@]24O)cc1OC` [NSC7524], 106.09%.

Staying with this assay, now noted: screen, single dose 100 µM, single replicate; residual AlphaLISA signal normalized to DMSO control; listed as 1115.
For `O=C(O)C1(O)C[C@@H](O)C(O)[C@H](O)C1` (stereo partly shown) [NSC1115], the “IN-GCN2 interaction (%)” value came to 83.40%.
